Like-named read-outs stand apart in the source and are kept apart here.
Legend:
VCaP cells = assay: VCaP cell proliferation inhibition experiment (CellTiter-Glo); assay type: cell-based; conditions: Homo sapiens, 168 h
Procedure: After centrifugation and resuspension, viable cell counting was performed using a Vi-Cell XR cell counter. […] Then, 180 µl of the cell suspension was added per well to a 96-well cell culture plate at a cell density of 7,500 cells/well. At the time of seeding, T0 wells were also prepared. The following day, R1881 at a final concentration of 0.1 nM and compounds at various concentrations were added. The plate was placed back into the incubator and cultured for an additional 7 days. At the time of compound addition, the T0 plate was measured using the CellTiter-Glo (CTG) kit (Promega, Cat. No. G7572) and recorded as RLU0. Following incubation, 75 µl of pre-thawed and room temperature-equilibrated CellTiter-Glo solution was added to each well. […] The results were processed according to Equation (2). […] Growth% = (RLUcompound−RLU0)/(RLUcontrol−RLU0) × 100% [formula]

AR protein = molecular target: T1, AR protein (Homo sapiens, UniProt P10275); assay: Detection of AR degradation in VCaP cells (automated western blot); assay type: cell-based; conditions: degradation of AR protein in VCaP cells, 24 hours incubation
T1 construct: VCap is a human prostate cancer cell line purchased from ATCC; host or cells: VCaP human prostate cancer cells
T1 sequence (P10275 1-920): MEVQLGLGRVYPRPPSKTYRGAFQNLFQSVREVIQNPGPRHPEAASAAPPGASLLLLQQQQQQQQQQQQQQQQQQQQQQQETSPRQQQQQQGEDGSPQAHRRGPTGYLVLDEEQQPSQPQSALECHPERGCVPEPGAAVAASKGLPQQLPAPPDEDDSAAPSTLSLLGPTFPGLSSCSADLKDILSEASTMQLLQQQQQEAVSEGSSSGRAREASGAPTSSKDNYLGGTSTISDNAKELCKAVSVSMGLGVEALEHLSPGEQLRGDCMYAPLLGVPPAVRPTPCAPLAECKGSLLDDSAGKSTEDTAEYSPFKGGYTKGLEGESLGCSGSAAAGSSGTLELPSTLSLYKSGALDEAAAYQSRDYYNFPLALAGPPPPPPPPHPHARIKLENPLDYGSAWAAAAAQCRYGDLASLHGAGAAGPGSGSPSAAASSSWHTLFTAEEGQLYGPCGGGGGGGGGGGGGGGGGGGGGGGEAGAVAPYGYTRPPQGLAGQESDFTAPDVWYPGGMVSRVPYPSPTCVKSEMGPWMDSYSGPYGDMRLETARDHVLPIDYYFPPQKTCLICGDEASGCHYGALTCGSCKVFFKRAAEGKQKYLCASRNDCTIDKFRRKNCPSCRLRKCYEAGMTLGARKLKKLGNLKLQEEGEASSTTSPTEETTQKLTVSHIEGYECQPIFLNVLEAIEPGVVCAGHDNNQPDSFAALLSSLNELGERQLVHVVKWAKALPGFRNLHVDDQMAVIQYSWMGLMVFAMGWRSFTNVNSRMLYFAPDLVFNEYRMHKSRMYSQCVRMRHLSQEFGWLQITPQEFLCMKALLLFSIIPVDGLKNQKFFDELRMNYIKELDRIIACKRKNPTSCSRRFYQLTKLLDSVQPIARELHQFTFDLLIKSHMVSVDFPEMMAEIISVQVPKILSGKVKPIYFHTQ
Procedure, shortened: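 VCaP cells (5 × 10^5/well) were treated with compounds at various concentrations for 24 h at 37°C. Lysate AR level was quantified by automated capillary western blot, normalised to β-actin and expressed relative to solvent control. DC50 came from four-parameter nonlinear regression; degradation rate = 100 − AR%.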

[1] = Pharmacokinetic test in rats; assay type: in vivo, SD rats; conditions: i.g. (5 mg/kg), vehicle 5% DMSO+5% Solutol+90% (20% SBE-β-CD); for AUC(0-t): rat, plasma, po
Procedure: (§1) Experimental objective: In this experiment, a single dose of the test compound was administered to SD rats via intravenous administration and intragastric gavage, and the concentration of the test compound in plasma of the rats was measured to evaluate the pharmacokinetic profile of the test compound in the rats.
Experimental animals: Male SD rats, 200-220 g, 6 rats/compound, purchased from Chengdu Ddossy Experimental Animals Co., Ltd.
(§2) Experimental method: On the day of the experiment, 6 SD rats were randomly grouped according to their body weights. The animals were fasted with water available for 12 to 14 h one day before the administration, and were fed 4 h after the administration. Table 3 Administration information of pharmacokinetic test in rats
Sampling: Before and after the administration, 0.1 mL of blood was taken from the orbits under isoflurane anaesthesia, and placed in an EDTAK2 centrifuge tube. Centrifugation was carried out at 5000 rpm at 4°C for 10 min, and the plasma was collected.
The plasma collection time points for IV&PO groups were 0, 5 min, 15 min, 30 min, 1 h, 2 h, 4 h, 7 h, 24 h, and 48 h.
Before analysis and detection, all samples were stored at -60°C. The samples were analysed quantitatively by LC-MS/MS. Table 4 Pharmacokinetic parameters of compounds of the present invention in plasma of rats

[2] = Pharmacokinetic test in mice; assay type: in vivo, ICR mice; conditions: i.g. (5 mg/kg), Vehicle 3: 5% DMSO+5% Solutol+90% (20% SBE-β-CD); for AUC(0-t): mouse, plasma, po
Procedure: as §1, with “ICR mice” for “SD rats”, “mice” for “rats”, “mice.” for “rats.”
Experimental animals: Male ICR mice, 6 mice/compound, purchased from Chengdu Ddossy Experimental Animals Co., Ltd.
as §2, with “[…]” for “rats”, “6” for “3”
Sampling: Before and after the administration, 0.15 mL of blood was taken from the orbits under isoflurane anaesthesia, and placed in an EDTAK2 centrifuge tube. Centrifugation was carried out at 5000 rpm at 4°C for 10 min, and the plasma was collected.
The plasma collection time points for PO groups were 0, 5 min, 15 min, 30 min, 1 h, 2 h, 4 h, 7 h, 24 h, and 48 h.
The plasma collection time points for IV groups were 0, 5 min, 15 min, 30 min, 1 h, 2 h, 4 h, 7 h, 24 h, and 48 h.
Before analysis and detection, all samples were stored at -60°C. The samples were analysed quantitatively by LC-MS/MS. Table 7 Pharmacokinetic parameters of compounds of the present invention in plasma of mice

hERG potassium channel = molecular target: T2, hERG potassium channel (Homo sapiens, UniProt Q12809); assay: hERG potassium ion channel test (manual patch-clamp, CHO cells); assay type: cell-based; conditions: chinese hamster; inhibitory activity against hERG potassium channel current, CHO cells, whole cell patch-clamp; read-out: IC50
T2 construct: expressed in transfected cells; host or cells: CHO cells stably expressing hERG
T2 sequence (Q12809 whole entry): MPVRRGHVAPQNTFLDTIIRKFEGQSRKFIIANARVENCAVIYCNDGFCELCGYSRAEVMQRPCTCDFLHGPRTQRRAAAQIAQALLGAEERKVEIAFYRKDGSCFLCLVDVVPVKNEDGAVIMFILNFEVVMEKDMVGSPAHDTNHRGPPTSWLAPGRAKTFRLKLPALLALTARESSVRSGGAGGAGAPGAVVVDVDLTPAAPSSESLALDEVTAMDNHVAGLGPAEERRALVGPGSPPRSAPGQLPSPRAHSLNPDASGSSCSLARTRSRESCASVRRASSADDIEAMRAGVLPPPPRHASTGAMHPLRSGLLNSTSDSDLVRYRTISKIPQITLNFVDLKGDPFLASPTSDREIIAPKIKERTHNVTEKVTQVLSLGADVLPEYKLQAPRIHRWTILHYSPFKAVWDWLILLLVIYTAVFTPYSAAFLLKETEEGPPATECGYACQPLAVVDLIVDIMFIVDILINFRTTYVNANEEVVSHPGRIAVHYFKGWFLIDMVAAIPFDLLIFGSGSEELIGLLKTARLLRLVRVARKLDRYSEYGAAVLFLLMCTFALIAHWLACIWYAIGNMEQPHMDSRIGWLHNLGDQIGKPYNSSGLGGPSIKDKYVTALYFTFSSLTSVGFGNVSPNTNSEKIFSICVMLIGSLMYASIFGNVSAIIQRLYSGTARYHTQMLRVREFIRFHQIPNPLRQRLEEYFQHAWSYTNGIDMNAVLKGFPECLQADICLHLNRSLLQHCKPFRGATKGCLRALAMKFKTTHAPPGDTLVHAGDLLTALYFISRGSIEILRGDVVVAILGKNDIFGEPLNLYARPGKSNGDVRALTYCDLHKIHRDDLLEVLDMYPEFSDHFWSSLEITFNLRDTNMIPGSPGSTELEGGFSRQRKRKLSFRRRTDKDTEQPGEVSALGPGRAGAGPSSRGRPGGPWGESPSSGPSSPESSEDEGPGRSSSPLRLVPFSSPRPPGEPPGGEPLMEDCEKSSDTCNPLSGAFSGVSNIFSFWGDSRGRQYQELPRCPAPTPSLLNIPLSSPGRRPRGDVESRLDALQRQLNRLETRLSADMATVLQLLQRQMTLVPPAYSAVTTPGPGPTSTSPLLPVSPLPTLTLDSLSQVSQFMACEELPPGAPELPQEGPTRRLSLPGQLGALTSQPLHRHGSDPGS
From the text: Experimental platform: Electrophysiological manual patch-clamp system
Cell line: Chinese hamster ovary (CHO) cell lines stably expressing hERG potassium ion channel
Experimental method: In Chinese Hamster Ovary (CHO) cells stably expressing hERG potassium channel, whole cell patch-clamp technique was used to record hERG potassium channel current at room temperature. The glass microelectrode was made of a glass electrode blank (BF150-86-10, Sutter) by a puller. The tip resistance after filling the liquid in the electrode was about 2-5 MΩ. The glass microelectrode can be connected to the patch-clamp amplifier by inserting the glass microelectrode into an amplifier probe. The clamping voltage and data recording were controlled and recorded by the pClamp 10 software through a computer. The sampling frequency was 10 kHz, and the filtering frequency was 2 kHz. After the whole cell records were obtained, the cells were clamped at -80 mV, and the step voltage that induced the hERG potassium current (I hERG) was depolarised from -80 mV to +20 mV for 2 s, then repolarised to -50 mV, and returned to -80 mV after 1 s. This voltage stimulation was given every 10 s, and the administration process was started after the hERG potassium current was confirmed to be stable (at least 1 minute). The compound was administered for at least 1 minute at each test concentration, and at least 2 cells (n ≥ 2) were tested at each concentration.
Data processing: Data analysis processing was carried out by using pClamp 10, GraphPad Prism 5 and Excel software.
Compound IC50 was calculated using GraphPad Prism 5 software by fitting according to the following equation: Y = Bottom + (Top−Bottom)/(1+10^(∧)((LogIC50−X)*HillSlope)) [formula] where X represents the Log value of the tested concentration of the test sample, Y represents the inhibition percentage at the corresponding concentration, and Bottom and Top represent the minimum and maximum inhibition percentage, respectively.

[3] = test system: Human CD34+ Hematopoietic stem cells; assay: Human CD34+ hematopoietic stem cell proliferation inhibition experiment; assay type: cell-based; conditions: 168 h, inhibitory activity against the proliferation of CD34+ hematopoietic stem cells, 7 days
Procedure: Human CD34+ Hematopoietic stem cells (TPCS, Cat.hmPB34-P-2CW) are CD34-positive stem cells obtained from human PBMCs through immunomagnetic bead sorting. The culture conditions are as follows: DPBS (Gibco, Cat.14190-144) +StemSpan SFEM II ([…], Cat.9655) +1X StemSpan CD34+ Expansion Supplement ([…], Cat.2691). First, 40 nL of DMSO, the positive reference compound Talazoparib, or the test compounds were respectively added to a 384-well plate (Corning, Cat. 3764). Then, a cell suspension was added at 400 cells per well in 40 µL of medium, resulting in final concentrations of 0.1% DMSO, 3 µM Talazoparib, or various concentrations of the compounds in each well. The plate was centrifuged at room temperature at 1000 rpm for 1 minute, followed by incubation for 7 days in a 37°C, 5% CO2 incubator. Following incubation, 20 µL of CellTiter-Glo Reagent (Promega, Cat. G7573) was directly added to each well, and the plate was centrifuged at room temperature at 1000 rpm for 1 minute, followed by incubation for 20 minutes in the dark. Following incubation, the chemiluminescent signal (CFU) was read and recorded using an Envision multimode microplate reader (PerkinElmer, Cat. 2104). The cell proliferation inhibition rate at various compound concentrations was calculated according to Equation (3), where CFUhigh control represents the average signal value of the DMSO group, CFUlow control represents the average signal value of the Talazoparib group, and CFUcompound represents the average signal value of the compound-treated group. The processed data obtained from Equation (3) were analysed using XLfit or GraphPad Prism software, and a four-parameter curve fitting model was applied to calculate the compound concentration corresponding to a 50% inhibition rate, i.e., the IC50 value. Inhibition% = (CFUhigh control−CFUcompound)/(CFUhigh control−CFUlow control) × 100% [formula]

Row | Compound | GI50 (VCaP cells) [nM] | DC50 (AR protein; read-out: DC50) [nM] | F [1] | AUC(0-t) [1] [ng·h/mL] | F [2] [%] | AUC(0-t) [2] [ng·h/mL] | DC50 (AR protein) [nM] | IC50 (hERG potassium channel) [nM] | IC50 [3] [nM]
1 | COc1cc(O[C@H]2C(C)(C)[C@H](NC(=O)c3ccc(N4CCC(CN5CCN6c7cc(F)c(C8CCC(=O)NC8=O)cc7CC[C@H]6C5)CC4)nn3)C2(C)C)ccc1C#N (stereo partly drawn) [Trifluoroacetate of compound 61] | < 300 | < 100 | 43.5+14% | 5460 | 98.8±12 | 28500 ± 3460 |  |  | 
2 | COc1cc(O[C@H]2C(C)(C)[C@H](NC(=O)c3ccc(N4CCC(CN5CCN6c7cc(F)c(C8CCC(=O)NC8=O)cc7CC[C@@H]6C5)CC4)nn3)C2(C)C)ccc1C#N (stereo partly drawn) [Trifluoroacetate of compound 60] | < 300 |  | 57.5±3.0% | 6600 ± 349 | 84.2±8.4 | 41600 ± 4140 | < 100 |  | 
3 | COc1cc(O[C@H]2C(C)(C)[C@H](NC(=O)c3ccc(N4CCC(CN5CCN6c7cc(F)c(C(=O)N[C@H]8CCC(=O)NC8=O)cc7CC[C@@H]6C5)CC4)cc3)C2(C)C)ccc1C#N [Compound 11] | < 300 | < 100 |  |  |  |  |  | > 40000 | > 10000
4 | COc1cc(O[C@H]2C(C)(C)[C@H](NC(=O)c3ccc(N4CCC5(CC4)CC(CN4CCN6c7cc(F)c(C(=O)N[C@H]8CCC(=O)NC8=O)cc7CC[C@H]6C4)C5)cc3)C2(C)C)ccc1C#N [Trifluoroacetate of compound 7] |  | < 100 |  |  |  |  |  |  | > 10000
